Test results from US20040162345A1, “Compounds with NEP/MP-inhibitory activity and uses thereof” (Solvay Pharmaceuticals GmbH, priority 2001, published 2004).
Entries after “also recorded” stand apart in the source; their conditions may differ. Where two headings read alike, the source gives them in different places.

Tests used:
[1] = target: T1, His6-tagged IGS5 ectodomain (Homo sapiens, UniProt Q495T6); assay: IGS5 enzyme inhibition assay (fluorescence-quenched big-ET-1 analog, HPLC); assay type: biochemical; conditions: for IC50: conversion of labeled fluorescent big-ET-1 analog
T1 construct: Enzyme: IGS-5 (sol hu)(his)6; or: His6-tagged IGS5 ectodomain;; made in house; host or cells: Sf9 insect cells, recombinant baculovirus IGBV73, purified from culture supernatant
T1 sequence (Q495T6 49-779 limits assumed): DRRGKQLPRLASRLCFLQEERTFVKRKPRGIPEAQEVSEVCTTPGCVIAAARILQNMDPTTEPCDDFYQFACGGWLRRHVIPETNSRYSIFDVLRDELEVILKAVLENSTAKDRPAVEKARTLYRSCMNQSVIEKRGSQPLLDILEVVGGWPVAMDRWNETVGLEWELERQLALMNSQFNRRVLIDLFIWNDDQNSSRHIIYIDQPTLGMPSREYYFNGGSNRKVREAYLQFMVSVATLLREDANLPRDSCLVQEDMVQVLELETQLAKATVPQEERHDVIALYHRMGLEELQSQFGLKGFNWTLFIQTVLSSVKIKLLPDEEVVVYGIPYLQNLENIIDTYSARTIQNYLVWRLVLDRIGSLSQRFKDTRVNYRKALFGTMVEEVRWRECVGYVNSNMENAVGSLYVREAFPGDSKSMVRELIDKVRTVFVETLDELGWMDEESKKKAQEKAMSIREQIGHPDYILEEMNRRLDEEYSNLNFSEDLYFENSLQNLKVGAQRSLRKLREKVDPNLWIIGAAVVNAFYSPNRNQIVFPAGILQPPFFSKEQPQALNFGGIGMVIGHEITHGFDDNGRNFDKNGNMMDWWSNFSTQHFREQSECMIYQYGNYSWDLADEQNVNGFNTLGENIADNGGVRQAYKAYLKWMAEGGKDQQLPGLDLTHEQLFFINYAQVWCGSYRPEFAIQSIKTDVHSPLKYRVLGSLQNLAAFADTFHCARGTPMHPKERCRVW
Procedure: The enzymatic activity of IGS5 polypeptides of the invention was tested with regard to the metabolism of biologically active peptides. In particular it was tested whether these IGS5 polypeptides may act on a variety of vasoactive peptides known in the state of the art e.g. such like atrial natriuretic peptide (ANP), bradykinin, big-endothelin (big-ET-1), endothelin (ET-1), substance P and angiotensin-1. In the context of the present invention in particular it was tested whether the IGS5 ectodomain, which is a novel human metalloprotease, hydrolyzes said vasoactive peptides. For comparison the assay was also performed for a known member of the metalloprotease family which was described earlier as soluble secreted endopeptidase (SEP) by Emoto et al. (J. Biol. Chem., Vol. 274 (1999): pp. 32469-32477). Furthermore, it was tested whether the activity of IGS5 to convert a big-ET-1 analog (the so-called 17 aa big-ET-1) may be inhibited by reference compounds that are used to determine the inhibition properties with regard to enzymes having ECE and/or NEP-characteristics.
Enzyme: IGS-5 (sol hu)(his)6; or: His6-tagged IGS5 ectodomain;
stock solution: 53 μg/ml in 20 mM HEPES pH 7.2, 5% glycerol, 0.005% Tween20, 100 mM NaCl, purity >99%; storage at 4° C.
working solution: stock solution diluted with assay buffer to 10 μg/ml.
Substrate: Mca-Asp-Ile-Ala-Trp-Phe-Dpa-[…]COOH;
Fluorescence-quenched big-ET-1 analog;
Assay buffer: 100 mM Tris pH 7.0, 250 mM NaCl.
All test compounds were dissolved in DMSO at 10 mM and were further diluted with assay buffer.
A quantity of 70 μl of the assay buffer, of 10 μl enzyme working solution and of 10 μl test compound solution were mixed in an Eppendorf vial and preincubated at 37° C. for 15 minutes. Then, 10 μl substrate stock solution was added and the reaction mixture was incubated at 37° C. for 60 minutes to allow for enzymatic hydrolysis. Subsequently the enzymatic reaction was terminated by heating at 95° C. for 5 minutes. After centrifugation (Heraeus Biofuge B, 3 min) the supernatant was subjected to HPLC analysis.
In order to separate the remaining substrate from the cleavage products reversed phase HPLC technique was used with a CC 125/4 Nucleosil 300/5 C18 RP column and a CC 8/4 Nucleosil 100/5 C18 precolumn (commercially available from Macherey-Nagel, Düren, Germany). Thus, 60 μl of the reaction samples obtained in Example 7b were injected into the HPLC, and the column was eluted at a flow rate of 1 ml/min by applying the following gradient and solutions: […]
The increasing fluorescence signal of the HPLC-peak of the peptide with the unquenched Mca-fluorophor after hydrolysis was taken as the basis for any calculation.
This signal was compared for the samples with and without inhibitor and % inhibition was calculated on basis of the respective peak areas.
% inhib=100*(1−Ainhib/Acontrol)
All samples were run in duplicate and mean values were used.
(§1) Furthermore, the potency of metalloprotease inhibitor compounds and reference compounds to suppress the conversion of big-ET to ET-1 was examined as described in this example 7, using a labeled fluorescent big-ET-1 analog. The procedures applied in the enzyme assays are described above in the examples 4 with regard to IGS5, in example 5 with regard to NEP, and in example 6 with regard to ECE.

[2] = target: Neutral endopeptidase (E.C. 3.4.24.11) (Sus scrofa, UniProt A0A4X1SQE6); assay: NEP enzyme inhibition assay (methionin-enkephalin substrate, HPLC); assay type: biochemical, pig
Sequence of Neutral endopeptidase (E.C. 3.4.24.11) (A0A4X1SQE6 entry or part of it): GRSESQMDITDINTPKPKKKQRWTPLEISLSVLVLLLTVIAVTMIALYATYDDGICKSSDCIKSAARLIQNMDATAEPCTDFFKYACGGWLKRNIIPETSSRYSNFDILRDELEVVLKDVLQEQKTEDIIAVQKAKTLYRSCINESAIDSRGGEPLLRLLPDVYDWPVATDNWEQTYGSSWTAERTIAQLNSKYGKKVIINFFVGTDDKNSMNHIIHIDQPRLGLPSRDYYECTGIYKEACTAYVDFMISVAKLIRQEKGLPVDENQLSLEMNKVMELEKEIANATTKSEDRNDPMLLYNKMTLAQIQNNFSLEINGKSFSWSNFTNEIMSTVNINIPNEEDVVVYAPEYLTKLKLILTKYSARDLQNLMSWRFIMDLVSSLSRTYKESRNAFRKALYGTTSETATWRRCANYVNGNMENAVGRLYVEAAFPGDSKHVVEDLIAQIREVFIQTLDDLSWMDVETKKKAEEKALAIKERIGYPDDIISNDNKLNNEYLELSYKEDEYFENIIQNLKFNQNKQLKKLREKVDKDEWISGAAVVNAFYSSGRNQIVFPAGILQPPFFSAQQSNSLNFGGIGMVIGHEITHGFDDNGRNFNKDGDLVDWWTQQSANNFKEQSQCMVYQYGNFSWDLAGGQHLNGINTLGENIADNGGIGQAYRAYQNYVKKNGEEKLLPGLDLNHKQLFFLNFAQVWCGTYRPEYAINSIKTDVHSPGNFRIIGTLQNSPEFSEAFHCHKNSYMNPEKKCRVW
Procedure: Neutral endopeptidase (E.C. 3.4.24.11) was prepared from pig kidney cortex according to the method of Gee et al. (Biochem J 1985 May 15;228(1):119-26) and purified as reported by Relton et al. (Biochem J 1983 Dec. 1;215(3):519-23). For the enzyme inhibition assay 10 ng of the purified enzyme, 20 μM substrate (methionin-enkephalin) and various inhibitor concentrations were used. The assay buffer was 50 mM Tris-(hydroxymethyl)-aminomethan/HCl pH 7.4, the total assay volume was 100 μl. After a preincubation period of 5 min of enzyme and inhibitor, the substrate was added and subsequently a second incubation phase for enzyme induced substrate hydrolysis at 37° C. for 30 min was initiated. The enzymatic reaction was stopped by heating at 95° C. for 5 min. After centrifugation the supernatant was subjected to HPLC. The products of enzymatic substrate hydrolysis were separated from the native substrate by HPLC technique and the inhibitor potency calculated by comparing the peak areas of the products with the peak area of native substrate for both, the samples with and without inhibitor (control). Blanks without enzyme, controls without inhibitor, samples with inhibitor solvent instead of the inhibitor and samples with a standard inhibitor were added to each assay run.
as §1

[3] = target: T2, Recombinant human COOH-terminal His6-tagged endothelin converting enzyme-1 (Homo sapiens, UniProt P42892); assay: ECE enzyme inhibition assay (17 amino acid truncated big endothelin-1, HPLC); assay type: biochemical
T2 construct: His6 (C); purchased Innogenetics, Ghent, Belgium; host or cells: Sf9 cells
T2 sequence (P42892 1-770): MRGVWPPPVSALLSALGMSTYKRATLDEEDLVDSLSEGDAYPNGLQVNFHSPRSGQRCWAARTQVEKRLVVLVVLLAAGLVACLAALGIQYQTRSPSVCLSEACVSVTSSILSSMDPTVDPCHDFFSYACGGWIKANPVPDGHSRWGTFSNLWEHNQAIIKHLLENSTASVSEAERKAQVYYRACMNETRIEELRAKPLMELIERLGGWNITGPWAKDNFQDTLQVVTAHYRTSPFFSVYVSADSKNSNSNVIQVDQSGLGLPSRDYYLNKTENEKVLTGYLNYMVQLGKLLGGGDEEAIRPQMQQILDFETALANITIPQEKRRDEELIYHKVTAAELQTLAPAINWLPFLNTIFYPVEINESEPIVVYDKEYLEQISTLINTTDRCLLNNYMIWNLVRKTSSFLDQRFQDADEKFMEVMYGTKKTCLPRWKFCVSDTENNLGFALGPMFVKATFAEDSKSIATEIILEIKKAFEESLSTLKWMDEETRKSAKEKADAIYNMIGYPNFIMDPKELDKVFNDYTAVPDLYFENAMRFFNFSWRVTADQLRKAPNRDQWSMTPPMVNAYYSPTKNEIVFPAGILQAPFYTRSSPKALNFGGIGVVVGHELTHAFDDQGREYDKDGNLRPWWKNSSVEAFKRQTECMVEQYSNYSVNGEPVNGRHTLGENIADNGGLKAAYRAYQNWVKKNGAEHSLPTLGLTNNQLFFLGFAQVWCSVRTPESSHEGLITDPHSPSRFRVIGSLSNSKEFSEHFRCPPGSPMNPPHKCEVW
Procedure: The enzyme inhibition assay comprised enzyme (2.8 μg), 5 μg substrate (moderately modified 17 amino acid truncated big endothelin-1), inhibitor at various final concentrations and 100 mM Tris-buffer (Tris-hydroxymethl-aminomethan/HCl, pH 7.0+150 mM NaCl) in a final volume of 100 μl. Pre-incubation of enzyme with inhibitor for 15 min at 37° C. was performed before substrate addition and incubation (60 min at 37° C.) for enzymatic hydrolysis. The enzymatic reaction was stopped by heating at 95° C. for 5 min. After centrifugation the supernatant was subjected to HPLC for separation of enzymatic hydrolysis products from undegraded substrate. % inhibition was calculated on the basis of peak areas for products and uncleaved substrate for the inhibited reaction in comparison to the control (without inhibitor). Blanks without enzyme, controls without inhibitor, samples with inhibitor solvent instead of the inhibitor and samples with a standard inhibitor were added to each assay run.

[4] = tested on: healthy volunteers; assay: Double-blind placebo-controlled clinical study, big-ET-induced pressure response; assay type: in vivo, human; conditions: thirteen healthy volunteers
Procedure: (§2) To proof the concept of clinical efficacy and safety of compound Ia-2 in man, 6 clinical trials were conducted in healthy volunteers and 2 proof of concept trials were conducted in patients: One randomized, placebo-controlled double-blind trial in patients with hypertension (N=191) and one open, baseline controlled pilot trial in patients with congestive heart failure (N=29). […] In the Intent-to-treat patient population (ITT), office diastolic blood pressure versus placebo decreased by −6.9 mmHg (last value under treatment; p<0.001) and office systolic blood pressure versus placebo decreased by −9.2 mmHg (last value under treatment; p=0.003) at the highest dose investigated (200 mg bid).

[5] = tested on: patients with WHO grade I-II hypertension; assay: Randomized, placebo-controlled double-blind 4-week trial in patients with hypertension; assay type: in vivo, human; conditions: 200 mg bid, ITT, last value under treatment
Procedure: as §2

[6] = tested on: patients with congestive heart failure; assay: Open, baseline controlled pilot trial in patients with congestive heart failure; assay type: in vivo, human
Procedure: as §2

[7] = tested on: volunteers and patients; assay: Clinical trials, plasma ANP and cGMP following oral dosing; assay type: in vivo, human
Procedure: as §2

O=C(O)C(Cc1ccc2c(c1)oc1ccccc12)NCP(=O)(O)O (centres unmarked) [CGS-35066]
inhibition of IGS5 activity (in words) [1]: Inhibition of IGS5 could be observed at higher concentrations only | IC50 [1]: 1300 nM | IC50 ([2]; 20 μM methionin-enkephalin, read-out: NEP IC50): 42 nM | IC50 [3]: 5 nM

O=C(O)CNC(=O)C(CS)Cc1ccccc1 (centres unmarked) [Thiorphan]
inhibition of IGS5 activity (in words) [1]: no inhibition of IGS5; also recorded: do not affect the activity of IGS5 | IC50 [1]: > 1000 nM | IC50 [2]: 2.4 nM | IC50 [3]: > 10000 nM

CCOC(=O)[C@H](CCc1ccccc1)CC1(C(=O)N[C@H]2CCc3ccccc3N(CC(=O)O)C2=O)CCCC1 [compound Ia-2, (3S,2′R)-3-{1-[2′-(ethoxycarbonyl)-4′-phenylbutyl]-cyclopentane-1-carbonylamino}-2,3,4,5-tetrahydro-2-oxo-1H-1-benzazepine-1-acetic acid]
ANP levels [4]: clear dose related increase | ET-1 levels [4]: did not increase | big-ET levels ([4]; compared to placebo group): increased dose dependently | big-ET-induced pressure response ([4]; versus placebo): dose-dependently inhibited | office diastolic blood pressure versus placebo ([5]; p<0.001): −6.9 mmHg | office systolic blood pressure versus placebo ([5]; p=0.003): −9.2 mmHg | IC50 [1]: 1.2 nM | change of plasma big-ET from baseline ([6]; 200 mg): +32.6% | plasma levels of big-ET following administration ([6]; 200 mg, baseline 4.9 fmol/ml): 6.5 fmol/mL | change of plasma big-ET from baseline ([6]; 400 mg): +56% | plasma levels of big-ET following administration ([6]; 400 mg, baseline 2.3 fmol/ml): 3.5 fmol/mL | plasma concentrations of ANP and its second messenger cGMP [7]: significantly increased and sustained
